In patent US20230348456A1, “QUINAZOLINONES, PHARMACEUTICAL COMPOSITIONS CONTAINING THE SAME, AND METHODS OF USING THE SAME” (Repare Therapeutics Inc., priority 2022, published 2023):
pIC50: −log10 of the molar value.

Target: recombinant human Myt1 (Homo sapiens (Human), UniProt Q99640)
Test: Myt1 enzymatic assay (ADP-Glo kinase assay)
Assay type: biochemical
Conditions: recombinant human Myt1 18 nM, ATP 10 μM
Description: Detection of Myt1 kinase activity utilized a recombinant human Myt1 kinase assay measuring the hydrolysis of ATP using a commercially available ADP-Glo Assay (ADP-Glo™ Kinase Assay from Promega, 10 000 assays, #V9102). Briefly, 5 μL recombinant human Myt1 (full length PKMYT1 recombinant human protein expressed in insect cells from Thermo Fisher #A33387; ˜80% purity) was prepared in reaction buffer (70 mM HEPES, 3 mM MgCl2, 3 mM MnCl2, 50 μg/ml PEG 20000, 3 μM Na-orthovanadate, 1.2 mM DTT) and added to 384 well white polystyrene, flat bottom well, non-treated, microplate (Corning #3572). After this, 5 μL of compounds (diluted in reaction buffer to 0.5% DMSO) was added to the microplate and the plate was spun briefly and incubated at 22° C. for 15 minutes. Ultra-Pure Adenosine Triphosphate (ATP) solution (ADP-Glo kit from Promega) was diluted in reaction buffer and 5 μL was added to the microplate, spun down briefly and incubated for 60 minutes at 30° C. The final Myt1 enzyme concentration was 18 nM and the final ATP concentration was 10 μM. After the 60-minute incubation, 15 μL of ADP-Glo reagent was added and the plate was spun briefly and sealed and incubated in the dark for 40 minutes at 22° C. Following this, 30 μL of kinase detection reagent was added per well and the plate was spun briefly, sealed and incubated for 45-60 minutes at 22° C. in the dark. Luminescence was read using the Envision (250 ms integration). The IC50 and the % max inhibition were calculated for each inhibitor compound tested.

recombinant human Myt1, sequence (Q99640 whole entry): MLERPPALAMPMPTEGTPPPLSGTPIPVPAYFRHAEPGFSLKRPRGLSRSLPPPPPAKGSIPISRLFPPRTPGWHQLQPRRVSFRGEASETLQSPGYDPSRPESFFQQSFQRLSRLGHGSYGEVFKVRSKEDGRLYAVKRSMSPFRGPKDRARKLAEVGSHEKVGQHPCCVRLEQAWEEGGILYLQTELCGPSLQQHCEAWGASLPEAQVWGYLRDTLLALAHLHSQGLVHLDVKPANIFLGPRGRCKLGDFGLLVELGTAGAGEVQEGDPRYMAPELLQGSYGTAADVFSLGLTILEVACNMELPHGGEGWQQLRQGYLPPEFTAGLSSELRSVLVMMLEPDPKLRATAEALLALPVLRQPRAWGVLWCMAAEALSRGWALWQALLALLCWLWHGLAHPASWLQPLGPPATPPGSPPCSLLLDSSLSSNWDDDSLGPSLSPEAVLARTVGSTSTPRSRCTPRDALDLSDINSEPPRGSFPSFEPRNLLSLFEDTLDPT

| Structure (SMILES) | pIC50 |
| --- | --- |
| Cc1ccc(O)cc1-c1cc(-c2nc(C(=O)N(C)C)cs2)c2c(c1N)C(=O)NC2 [Compound 151] | 7.21 |
| Nc1c(-c2cccc3[nH]ncc23)cc(-c2nccs2)c2nc(Cc3ccccc3)[nH]c(=O)c12 [Compound 46] | < 5.70 |
| Nc1c(-c2cccc3[nH]ncc23)cc(-c2cccc(OCCN3CCCC3)n2)c2nc(-c3ccncc3)[nH]c(=O)c12 [Compound 54] | 8.70 |
| Nc1c(-c2cccc3[nH]ncc23)cc(-c2nccs2)c2nc(C3CCOCC3)[nH]c(=O)c12 [Compound 13] | 5.85 |
| Nc1c(-c2cccc3[nH]ncc23)cc(-c2cccc(=O)[nH]2)c2nc(-c3cccnc3)[nH]c(=O)c12 [Compound 80] | 8.22 |
| Nc1c(-c2cccc3[nH]ncc23)cc(-c2ncc(Cl)s2)c2nc[nH]c(=O)c12 [Compound 114] | 7.55 |
| CC(=O)N1CC=C(c2cc(-c3cccc4[nH]ncc34)c(N)c3c(=O)[nH]c(-c4ccncc4)nc23)CC1 [Compound 57] | 8.70 |
| Nc1c(-c2cccc3[nH]ncc23)cc(-c2cccnn2)c2nc[nH]c(=O)c12 [Compound 131] | 7.15 |
| Cc1ccc(O)cc1-c1cc(-c2ccccc2)c2c(c1N)C(=O)NC2 [Compound 163, 7-amino-6-(5-hydroxy-2-methyl-phenyl)-4-phenyl-isoindolin-1-one] | 5.97 |
| Nc1c(-c2cccc3[nH]ncc23)cc(Br)c2nc(-c3ccc(N4CCN(CCO)CC4)nc3)[nH]c(=O)c12 [Compound 36] | 7.12 |
| Cc1ccc(O)cc1-c1cc(-c2ncc(C(=O)NC(C)C)s2)c2c(c1N)C(=O)NC2 [Compound 153] | 6.32 |
| Nc1c(-c2cccc3[nH]ncc23)cc(Br)c2nc(-c3ccc(N4CCOCC4)nc3)[nH]c(=O)c12 [Compound 25, 5-amino-8-bromo-6-(1H-indazol-4-yl)-2-(6-morpholinopyridin-3-yl)quinazolin-4(3H)-one 2,2,2-trifluoroacetate] | 7.64 |
| Cc1ccc2[nH]ncc2c1-c1cc(-c2cccc(OC[C@H]3COCCO3)n2)c2nc[nH]c(=O)c2c1N [Compound 97] | 8.00 |
| Cn1ccc(-c2cc(-c3cccc4[nH]ncc34)c(N)c3c(=O)[nH]cnc23)n1 [Compound 129] | 7.64 |
| Cc1nc2c(-c3nccs3)cc(-c3cccc4[nH]ncc34)c(N)c2c(=O)[nH]1 [Compound 9] | 7.33 |
| Cc1ccc(O)cc1-c1cc(-c2ncc(C(=O)N3CCOCC3)s2)c2c(c1N)C(=O)NC2 [Compound 152] | 6.17 |
| Cc1ccc(O)cc1-c1cc(-c2nc(C(=O)O)cs2)c2c(c1N)C(=O)NC2 [Compound 162] | 6.74 |
| Nc1c(-c2cccc3[nH]ncc23)cc(-c2nccs2)c2nc(Oc3ccccc3)[nH]c(=O)c12 [Compound 165, 5-amino-6-(1H-indazol-4-yl)-2-phenoxy-8-(thiazol-2-yl)quinazolin-4(3H)-one] | 6.22 |
| Cc1ccc(O)cc1-c1cc(-c2nc(C(=O)NC(C)C)cs2)c2c(c1N)C(=O)NC2 [Compound 158] | 7.26 |
| Cc1ccc(O)cc1-c1cc(-c2nc(C#N)cs2)c2c(c1N)C(=O)NC2 [Compound 160] | 6.63 |
| Cc1ccc2[nH]ncc2c1-c1cc(-c2cccc(OC[C@@H]3COCCO3)n2)c2nc[nH]c(=O)c2c1N [Compound 101] | 7.96 |
| Nc1c(-c2cccc3[nH]ncc23)cc(-c2cccc(OC[C@@H]3CCCO3)n2)c2nc(-c3ccncc3)[nH]c(=O)c12 [Compound 55] | 8.40 |
| Nc1c(-c2cccc3[nH]ncc23)cc(C2=CCC(F)(F)CC2)c2nc(-c3ccncc3)[nH]c(=O)c12 [Compound 71] | 7.68 |
| Cc1ccc(O)cc1-c1cc(-c2ccccn2)c2nc[nH]c(=O)c2c1N [Compound 137] | 7.29 |
| Nc1c(-c2cccc3[nH]ncc23)cc(Br)c2nc(-c3ccncc3)[nH]c(=O)c12 [Compound 83] | 8.30 |
| Cc1ccc(O)cc1-c1cc(-c2ncc(C(=O)NCCO)s2)c2c(c1N)C(=O)NC2 [Compound 147] | 6.68 |
| Cc1ccc(O)cc1-c1cc(-c2ncc(C(=O)N(C)C)s2)c2c(c1N)C(=O)NC2 [Compound 154] | 6.53 |
